Measurements taken from the NIST ThermoML archive (doi:10.1021/je050399c).

Details: Fluid (supercritical or subcritical phases), Vibrating wire viscometry

N#N [nitrogen]
Details | viscosity [mPa·s]
348.15 K, 25007 kPa | 0.02543
348.15 K, 26007 kPa | 0.02571
348.15 K, 27005 kPa | 0.02598
348.15 K, 27995 kPa | 0.02628
348.15 K, 29000 kPa | 0.02655
348.15 K, 30021 kPa | 0.02687
348.15 K, 31015 kPa | 0.02717
348.15 K, 32013 kPa | 0.02747
348.15 K, 33000 kPa | 0.02776
348.15 K, 34013 kPa | 0.02808
348.15 K, 34919 kPa | 0.02833
373.15 K, 100.3 kPa | 0.02102
373.15 K, 200.1 kPa | 0.02106
373.15 K, 301 kPa | 0.02108
373.15 K, 400.2 kPa | 0.02109
373.15 K, 600.7 kPa | 0.0211
373.15 K, 800.6 kPa | 0.02112
373.15 K, 1000.5 kPa | 0.02114
373.15 K, 1501.2 kPa | 0.0212
373.15 K, 2002.1 kPa | 0.02125
373.15 K, 2501.4 kPa | 0.02131
373.15 K, 3003.5 kPa | 0.02137
373.15 K, 3503.3 kPa | 0.02144
373.15 K, 4010 kPa | 0.0215
373.15 K, 4501.6 kPa | 0.02157
373.15 K, 5007.4 kPa | 0.02164
373.15 K, 5504.7 kPa | 0.02172
373.15 K, 6000.6 kPa | 0.0218
373.15 K, 6507.4 kPa | 0.02188
373.15 K, 7006.9 kPa | 0.02194
373.15 K, 7500.7 kPa | 0.02203
373.15 K, 8002.7 kPa | 0.02211
373.15 K, 8504.3 kPa | 0.0222
373.15 K, 9002.1 kPa | 0.02228
373.15 K, 9499.1 kPa | 0.02238
373.15 K, 10010 kPa | 0.02247
373.15 K, 11006 kPa | 0.02267
373.15 K, 12000 kPa | 0.02284
373.15 K, 13002 kPa | 0.02307
373.15 K, 14010 kPa | 0.02327
373.15 K, 15013 kPa | 0.02348
373.15 K, 16013 kPa | 0.0237
373.15 K, 17018 kPa | 0.02392
373.15 K, 18001 kPa | 0.02414
373.15 K, 19005 kPa | 0.0244
373.15 K, 19977 kPa | 0.02462
373.15 K, 21015 kPa | 0.02487
373.15 K, 22011 kPa | 0.0251
373.15 K, 23004 kPa | 0.02536
373.15 K, 24005 kPa | 0.02559
373.15 K, 25012 kPa | 0.02584
373.15 K, 26006 kPa | 0.0261
373.15 K, 27007 kPa | 0.02635
373.15 K, 28017 kPa | 0.02662
373.15 K, 29005 kPa | 0.02688
373.15 K, 30003 kPa | 0.02714
373.15 K, 31001 kPa | 0.02741
373.15 K, 32010 kPa | 0.02765
373.15 K, 33011 kPa | 0.02792
373.15 K, 34006 kPa | 0.02821
373.15 K, 34834 kPa | 0.02844
398.15 K, 100.1 kPa | 0.02203
398.15 K, 200.9 kPa | 0.02207
398.15 K, 300.8 kPa | 0.02209
398.15 K, 400.5 kPa | 0.0221
398.15 K, 600.3 kPa | 0.02212
398.15 K, 800.5 kPa | 0.02213
398.15 K, 1001 kPa | 0.02215
398.15 K, 1501.8 kPa | 0.0222
398.15 K, 2001.3 kPa | 0.02225
398.15 K, 2495.8 kPa | 0.02231
398.15 K, 3000.7 kPa | 0.02236
398.15 K, 3501.8 kPa | 0.02242
398.15 K, 4002.8 kPa | 0.02247
398.15 K, 4503.1 kPa | 0.02254
398.15 K, 5003.7 kPa | 0.0226
398.15 K, 5502.6 kPa | 0.02266
398.15 K, 6004.9 kPa | 0.02273
398.15 K, 6501.8 kPa | 0.0228
398.15 K, 7005.3 kPa | 0.02287
398.15 K, 7507.1 kPa | 0.02294
398.15 K, 8007.6 kPa | 0.02302
398.15 K, 8501 kPa | 0.02311
398.15 K, 9010.3 kPa | 0.02317
398.15 K, 9506.9 kPa | 0.02324
398.15 K, 10005 kPa | 0.02334
398.15 K, 11003 kPa | 0.0235
398.15 K, 11989 kPa | 0.02369
398.15 K, 13002 kPa | 0.02386
398.15 K, 13997 kPa | 0.02405
398.15 K, 15013 kPa | 0.02423
398.15 K, 16005 kPa | 0.02443
398.15 K, 17010 kPa | 0.02463
398.15 K, 18010 kPa | 0.02482
398.15 K, 19003 kPa | 0.02503
398.15 K, 20019 kPa | 0.02525
398.15 K, 21009 kPa | 0.02546
398.15 K, 22011 kPa | 0.02568
398.15 K, 23034 kPa | 0.0259
398.15 K, 23993 kPa | 0.0261
398.15 K, 25001 kPa | 0.02634
398.15 K, 25977 kPa | 0.02657
398.15 K, 27031 kPa | 0.02679
398.15 K, 28028 kPa | 0.02703
398.15 K, 29028 kPa | 0.02728
398.15 K, 29911 kPa | 0.02747
398.15 K, 31023 kPa | 0.02773
398.15 K, 32013 kPa | 0.02796
398.15 K, 33034 kPa | 0.02822
398.15 K, 34043 kPa | 0.02845
398.15 K, 35040 kPa | 0.02872
423.15 K, 100.1 kPa | 0.02302
423.15 K, 200.1 kPa | 0.02305
423.15 K, 300.4 kPa | 0.02307
423.15 K, 400.1 kPa | 0.02309
423.15 K, 600.2 kPa | 0.0231
423.15 K, 800.3 kPa | 0.02312
423.15 K, 1001.1 kPa | 0.02313
423.15 K, 1502.5 kPa | 0.02318
423.15 K, 1997.8 kPa | 0.02322
423.15 K, 2498 kPa | 0.02327
423.15 K, 3002.3 kPa | 0.02332
423.15 K, 3505.8 kPa | 0.02337
423.15 K, 4004 kPa | 0.02342
423.15 K, 4501.2 kPa | 0.02348
423.15 K, 5002.7 kPa | 0.02353
423.15 K, 5502.8 kPa | 0.02358
423.15 K, 6002.2 kPa | 0.02365
423.15 K, 6502.3 kPa | 0.02372
423.15 K, 7003 kPa | 0.02377
423.15 K, 7497.9 kPa | 0.02384
423.15 K, 8004.2 kPa | 0.02391
423.15 K, 8503 kPa | 0.02398
423.15 K, 9004.2 kPa | 0.02405
423.15 K, 9504.3 kPa | 0.02412
423.15 K, 10006 kPa | 0.02418
423.15 K, 11004 kPa | 0.02434
423.15 K, 11994 kPa | 0.02451
423.15 K, 13002 kPa | 0.02466
423.15 K, 14011 kPa | 0.02483
423.15 K, 15002 kPa | 0.025
423.15 K, 16009 kPa | 0.02517
423.15 K, 17009 kPa | 0.02535
423.15 K, 17999 kPa | 0.02554
423.15 K, 19008 kPa | 0.02573
423.15 K, 20008 kPa | 0.02591
423.15 K, 20987 kPa | 0.02609
423.15 K, 22009 kPa | 0.0263
423.15 K, 23014 kPa | 0.02651
423.15 K, 24019 kPa | 0.02669
423.15 K, 25024 kPa | 0.02691
423.15 K, 26017 kPa | 0.02711
423.15 K, 27035 kPa | 0.02732
423.15 K, 28010 kPa | 0.02753
423.15 K, 29015 kPa | 0.02774
423.15 K, 30011 kPa | 0.02794
423.15 K, 31001 kPa | 0.02815
423.15 K, 31988 kPa | 0.02837
423.15 K, 32989 kPa | 0.02859
423.15 K, 34020 kPa | 0.02882
423.15 K, 35050 kPa | 0.02903
